Test [1] deals with Bone morphogenetic protein receptor type-1A (Homo sapiens) (UniProt P36894). The experiment in a line: Inhibition of BMPR1A (unknown origin) assessed as residual activity at 1000 nM by KINOMEscan analysis relative to control.
Test [2] addresses LIM domain kinase 1 (Homo sapiens) (UniProt P53667). The experiment in a line: Inhibition of LIMK1 (unknown origin) assessed as residual activity at 1000 nM by KINOMEscan analysis relative to control.
Test [3] has as its system Fibroblast growth factor receptor 3 (Homo sapiens), P22607 [G697C]. The experiment in a line: Inhibition of FGFR3 G697C mutant (unknown origin) assessed as residual activity at 1000 nM by KINOMEscan analysis relative to control.
For test [4], the target named is Casein kinase I isoform gamma-3 (Homo sapiens) (UniProt Q9Y6M4). In words: Inhibition of CSNK1G3 (unknown origin) assessed as residual activity at 1000 nM by KINOMEscan analysis relative to control.
Chain of Casein kinase I isoform gamma-3 (Homo sapiens) (Q9Y6M4 whole entry, looked up, canonical isoform): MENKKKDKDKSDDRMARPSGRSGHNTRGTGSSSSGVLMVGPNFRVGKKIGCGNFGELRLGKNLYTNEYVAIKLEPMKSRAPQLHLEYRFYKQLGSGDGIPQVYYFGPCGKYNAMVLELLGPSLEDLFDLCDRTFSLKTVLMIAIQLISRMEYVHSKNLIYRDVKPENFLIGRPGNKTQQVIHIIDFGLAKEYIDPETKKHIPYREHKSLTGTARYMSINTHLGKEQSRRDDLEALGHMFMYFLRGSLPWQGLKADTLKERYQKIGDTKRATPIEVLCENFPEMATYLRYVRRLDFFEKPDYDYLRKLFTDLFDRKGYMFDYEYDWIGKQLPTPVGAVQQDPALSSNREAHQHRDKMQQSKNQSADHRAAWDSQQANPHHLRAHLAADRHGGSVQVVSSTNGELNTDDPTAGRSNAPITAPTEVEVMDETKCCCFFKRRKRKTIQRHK
The target of test [5] is Macrophage-stimulating protein receptor (Homo sapiens) (UniProt Q04912). The experiment in a line: Inhibition of MST1R (unknown origin) assessed as residual activity at 1000 nM by KINOMEscan analysis relative to control.
For test [6], the target named is T1, Inhibitor of nuclear factor kappa-B kinase subunit beta (Homo sapiens) (UniProt O14920).
T1 sequence (whole entry): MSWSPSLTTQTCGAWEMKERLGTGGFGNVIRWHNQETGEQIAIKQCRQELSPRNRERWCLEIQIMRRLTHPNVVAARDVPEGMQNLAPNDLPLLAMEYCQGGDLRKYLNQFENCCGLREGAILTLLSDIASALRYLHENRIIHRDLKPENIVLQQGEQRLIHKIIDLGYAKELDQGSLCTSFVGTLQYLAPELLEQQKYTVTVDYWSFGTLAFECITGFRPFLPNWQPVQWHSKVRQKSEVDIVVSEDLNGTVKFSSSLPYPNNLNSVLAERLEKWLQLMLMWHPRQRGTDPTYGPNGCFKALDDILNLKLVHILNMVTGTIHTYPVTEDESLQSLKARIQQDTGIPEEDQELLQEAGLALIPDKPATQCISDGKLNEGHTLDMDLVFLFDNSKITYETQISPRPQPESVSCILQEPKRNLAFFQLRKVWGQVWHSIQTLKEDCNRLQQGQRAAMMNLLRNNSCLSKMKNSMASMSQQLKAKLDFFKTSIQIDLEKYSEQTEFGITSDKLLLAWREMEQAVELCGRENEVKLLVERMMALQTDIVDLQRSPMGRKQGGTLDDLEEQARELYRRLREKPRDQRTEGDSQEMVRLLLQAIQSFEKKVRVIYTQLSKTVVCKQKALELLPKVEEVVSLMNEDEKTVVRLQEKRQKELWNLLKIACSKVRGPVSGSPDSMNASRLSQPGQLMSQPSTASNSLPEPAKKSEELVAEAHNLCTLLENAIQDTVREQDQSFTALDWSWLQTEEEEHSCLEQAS
The experiment in a line: Inhibition of IKK-beta (unknown origin) assessed as residual activity at 1000 nM by KINOMEscan analysis relative to control.

In test [7] the target is T2, Protein kinase C epsilon type (Homo sapiens) (UniProt Q02156).
T2 sequence (whole entry): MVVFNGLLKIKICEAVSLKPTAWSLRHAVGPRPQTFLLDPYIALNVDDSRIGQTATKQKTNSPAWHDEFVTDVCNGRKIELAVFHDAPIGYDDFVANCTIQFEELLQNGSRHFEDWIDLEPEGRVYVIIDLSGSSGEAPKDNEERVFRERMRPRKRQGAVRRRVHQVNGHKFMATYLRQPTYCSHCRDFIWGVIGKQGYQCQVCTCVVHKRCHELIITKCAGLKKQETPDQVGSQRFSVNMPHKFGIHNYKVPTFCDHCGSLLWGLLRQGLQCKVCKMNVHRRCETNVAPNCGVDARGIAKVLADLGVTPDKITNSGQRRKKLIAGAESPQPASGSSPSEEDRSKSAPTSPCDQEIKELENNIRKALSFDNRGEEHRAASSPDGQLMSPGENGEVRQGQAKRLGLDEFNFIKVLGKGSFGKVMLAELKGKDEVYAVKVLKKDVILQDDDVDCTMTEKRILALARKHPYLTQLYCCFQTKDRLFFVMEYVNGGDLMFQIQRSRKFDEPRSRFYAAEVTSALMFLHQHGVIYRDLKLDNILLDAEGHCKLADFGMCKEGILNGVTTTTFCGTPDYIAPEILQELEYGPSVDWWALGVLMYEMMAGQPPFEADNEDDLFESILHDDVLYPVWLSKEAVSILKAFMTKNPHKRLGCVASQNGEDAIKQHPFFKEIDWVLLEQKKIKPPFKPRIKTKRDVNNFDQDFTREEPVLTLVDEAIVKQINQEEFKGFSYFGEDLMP
The experiment in a line: Inhibition of PRKCE (unknown origin) assessed as residual activity at 1000 nM by KINOMEscan analysis relative to control.

Test [8] has as its target Serine/threonine-protein kinase B-raf (Homo sapiens) (UniProt P15056). The experiment in a line: Inhibition of BRAF (unknown origin) assessed as residual activity at 1000 nM by KINOMEscan analysis relative to control.
Test [9] deals with Receptor-type tyrosine-protein kinase FLT3 (Homo sapiens), P36888 [D835Y]. The experiment in a line: Inhibition of FLT3 D835Y mutant (unknown origin) assessed as residual activity at 1000 nM by KINOMEscan analysis relative to control.
The test system of test [10] is Phosphatidylinositol 4,5-bisphosphate 3-kinase catalytic subunit alpha isoform (Homo sapiens), P42336 [H1047Y]. In words: Inhibition of PIK3CA H1047Y mutant (unknown origin) assessed as residual activity at 1000 nM by KINOMEscan analysis relative to control.
Chain of Phosphatidylinositol 4,5-bisphosphate 3-kinase catalytic subunit alpha isoform (Homo sapiens), P42336 [H1047Y] (P42336 whole entry H1047Y, canonical isoform): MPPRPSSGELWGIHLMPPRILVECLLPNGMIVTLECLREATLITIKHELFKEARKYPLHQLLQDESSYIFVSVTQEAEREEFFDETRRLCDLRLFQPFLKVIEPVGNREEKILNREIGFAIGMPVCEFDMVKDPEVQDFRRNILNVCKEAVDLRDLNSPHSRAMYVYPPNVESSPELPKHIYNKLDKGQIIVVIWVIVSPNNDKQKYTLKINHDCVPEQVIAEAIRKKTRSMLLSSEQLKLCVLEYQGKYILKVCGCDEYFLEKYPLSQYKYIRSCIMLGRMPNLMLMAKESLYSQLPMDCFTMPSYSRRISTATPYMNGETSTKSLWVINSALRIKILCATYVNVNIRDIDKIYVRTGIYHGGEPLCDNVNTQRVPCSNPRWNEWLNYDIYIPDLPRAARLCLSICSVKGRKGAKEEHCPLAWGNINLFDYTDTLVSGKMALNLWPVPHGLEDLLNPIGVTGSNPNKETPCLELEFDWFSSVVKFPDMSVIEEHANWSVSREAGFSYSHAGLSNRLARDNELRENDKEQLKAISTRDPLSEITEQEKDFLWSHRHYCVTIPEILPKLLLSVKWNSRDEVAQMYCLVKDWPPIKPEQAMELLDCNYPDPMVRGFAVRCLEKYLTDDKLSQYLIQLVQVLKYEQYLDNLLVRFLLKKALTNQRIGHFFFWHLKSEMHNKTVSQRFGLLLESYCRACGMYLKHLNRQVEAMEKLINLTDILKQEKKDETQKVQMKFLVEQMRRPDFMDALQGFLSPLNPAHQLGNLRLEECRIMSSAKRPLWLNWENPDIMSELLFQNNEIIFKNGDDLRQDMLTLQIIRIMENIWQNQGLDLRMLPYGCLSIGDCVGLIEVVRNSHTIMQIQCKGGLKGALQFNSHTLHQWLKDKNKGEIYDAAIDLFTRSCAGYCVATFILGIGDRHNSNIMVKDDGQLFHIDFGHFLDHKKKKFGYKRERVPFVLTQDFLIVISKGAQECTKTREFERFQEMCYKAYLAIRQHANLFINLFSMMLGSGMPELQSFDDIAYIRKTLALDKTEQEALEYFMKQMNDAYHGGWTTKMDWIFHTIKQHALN

Chain of LIM domain kinase 1 (Homo sapiens) (P53667 whole entry, looked up, the tested form may be a part): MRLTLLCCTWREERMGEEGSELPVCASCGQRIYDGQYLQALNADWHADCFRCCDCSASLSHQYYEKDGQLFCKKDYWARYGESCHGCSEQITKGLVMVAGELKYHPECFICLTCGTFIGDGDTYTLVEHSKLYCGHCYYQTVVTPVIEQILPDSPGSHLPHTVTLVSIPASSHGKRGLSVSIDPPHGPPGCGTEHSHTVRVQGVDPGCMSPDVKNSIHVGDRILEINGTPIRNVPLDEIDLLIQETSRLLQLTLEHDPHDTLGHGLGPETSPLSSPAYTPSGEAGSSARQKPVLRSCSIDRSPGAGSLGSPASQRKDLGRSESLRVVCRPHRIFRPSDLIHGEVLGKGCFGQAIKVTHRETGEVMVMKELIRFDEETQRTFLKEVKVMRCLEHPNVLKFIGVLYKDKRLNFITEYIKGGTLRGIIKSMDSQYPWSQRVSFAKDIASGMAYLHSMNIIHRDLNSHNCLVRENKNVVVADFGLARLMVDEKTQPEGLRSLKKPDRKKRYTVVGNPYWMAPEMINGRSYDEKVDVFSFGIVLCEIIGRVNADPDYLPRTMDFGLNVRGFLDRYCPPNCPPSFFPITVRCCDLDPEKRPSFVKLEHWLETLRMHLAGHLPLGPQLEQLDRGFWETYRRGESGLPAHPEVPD
Chain of Serine/threonine-protein kinase B-raf (Homo sapiens) (P15056 whole entry): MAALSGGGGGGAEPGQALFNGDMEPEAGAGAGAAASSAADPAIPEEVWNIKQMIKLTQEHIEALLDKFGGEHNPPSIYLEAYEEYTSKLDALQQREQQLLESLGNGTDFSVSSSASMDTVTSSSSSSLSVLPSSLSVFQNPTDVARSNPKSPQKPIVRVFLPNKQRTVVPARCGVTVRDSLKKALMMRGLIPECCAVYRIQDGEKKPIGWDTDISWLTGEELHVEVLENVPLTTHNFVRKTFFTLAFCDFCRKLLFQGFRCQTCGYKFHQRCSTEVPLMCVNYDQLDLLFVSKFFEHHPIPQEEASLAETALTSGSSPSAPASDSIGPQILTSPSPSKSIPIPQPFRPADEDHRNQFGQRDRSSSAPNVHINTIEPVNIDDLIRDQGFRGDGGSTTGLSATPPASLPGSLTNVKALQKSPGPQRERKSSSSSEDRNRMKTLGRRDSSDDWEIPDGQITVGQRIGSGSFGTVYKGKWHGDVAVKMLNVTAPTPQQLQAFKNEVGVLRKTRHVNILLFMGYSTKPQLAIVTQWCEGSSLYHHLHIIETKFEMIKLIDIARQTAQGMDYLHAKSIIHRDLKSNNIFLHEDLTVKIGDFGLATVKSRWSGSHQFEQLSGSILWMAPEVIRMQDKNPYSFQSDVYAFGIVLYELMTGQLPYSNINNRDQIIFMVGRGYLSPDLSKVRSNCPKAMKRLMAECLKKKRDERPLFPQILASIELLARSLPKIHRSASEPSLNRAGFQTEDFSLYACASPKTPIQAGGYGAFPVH
Chain of Bone morphogenetic protein receptor type-1A (Homo sapiens) (P36894 whole entry, the tested form may be a part): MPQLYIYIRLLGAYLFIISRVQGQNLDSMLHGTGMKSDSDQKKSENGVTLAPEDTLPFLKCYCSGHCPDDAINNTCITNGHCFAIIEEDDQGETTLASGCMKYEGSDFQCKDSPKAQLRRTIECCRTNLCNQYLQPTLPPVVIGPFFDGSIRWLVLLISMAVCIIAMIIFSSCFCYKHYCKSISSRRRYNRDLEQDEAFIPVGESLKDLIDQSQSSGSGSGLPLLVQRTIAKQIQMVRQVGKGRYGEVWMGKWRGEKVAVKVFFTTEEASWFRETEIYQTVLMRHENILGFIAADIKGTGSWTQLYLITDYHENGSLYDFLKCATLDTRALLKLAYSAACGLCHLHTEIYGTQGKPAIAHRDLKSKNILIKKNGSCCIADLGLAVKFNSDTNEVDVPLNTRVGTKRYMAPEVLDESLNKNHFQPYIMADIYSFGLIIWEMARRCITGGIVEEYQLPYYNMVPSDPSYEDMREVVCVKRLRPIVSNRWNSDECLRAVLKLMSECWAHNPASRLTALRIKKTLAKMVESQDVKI
Chain of Fibroblast growth factor receptor 3 (Homo sapiens), P22607 [G697C] (P22607 whole entry G697C, canonical isoform): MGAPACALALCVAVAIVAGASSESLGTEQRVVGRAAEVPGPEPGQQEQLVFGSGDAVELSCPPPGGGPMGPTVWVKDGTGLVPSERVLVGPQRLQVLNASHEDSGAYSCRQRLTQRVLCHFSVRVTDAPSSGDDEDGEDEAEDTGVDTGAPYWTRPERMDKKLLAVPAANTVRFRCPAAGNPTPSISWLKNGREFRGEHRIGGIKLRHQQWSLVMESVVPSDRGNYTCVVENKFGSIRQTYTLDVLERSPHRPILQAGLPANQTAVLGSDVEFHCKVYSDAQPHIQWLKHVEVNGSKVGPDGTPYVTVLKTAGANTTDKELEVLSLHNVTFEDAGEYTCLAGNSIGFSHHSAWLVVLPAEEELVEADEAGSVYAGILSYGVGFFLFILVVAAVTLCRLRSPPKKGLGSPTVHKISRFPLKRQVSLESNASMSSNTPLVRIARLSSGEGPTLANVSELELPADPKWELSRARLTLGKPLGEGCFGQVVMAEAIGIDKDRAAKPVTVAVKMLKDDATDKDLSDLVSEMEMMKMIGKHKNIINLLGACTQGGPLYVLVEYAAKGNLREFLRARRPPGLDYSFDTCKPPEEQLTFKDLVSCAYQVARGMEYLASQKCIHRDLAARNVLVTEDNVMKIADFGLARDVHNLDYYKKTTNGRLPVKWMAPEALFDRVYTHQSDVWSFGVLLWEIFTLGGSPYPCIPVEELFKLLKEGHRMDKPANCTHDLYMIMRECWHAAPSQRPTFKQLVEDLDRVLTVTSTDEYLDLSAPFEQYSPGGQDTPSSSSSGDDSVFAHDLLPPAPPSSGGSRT

As for `COc1cc2nc(C)nc(N[C@H](C)c3cccc(-c4cn[nH]c4)c3)c2cc1OC`, the Activity in test [1] came to 97%; in test [2], 100%; in test [3] it was 35%; in test [4], 80%; in [5], 75%; in test [6] it was 73%. In addition, the Activity in test [7] stood at 80%; in [8] it was 75%; in test [9] it was 89%; in test [10], 63%.

In the case of `COc1cc2ncnc(N[C@H](C)c3cccc4ccccc34)c2cc1OC`, the Activity in [1] came to 100%; in test [2], 100%; in test [3], 100%; in [4], 100%; in test [5] it was 100%; in [6], 82%. The Activity stood at 95% in test [7], 91% in test [8], 96% in test [9] and 89% in test [10].

The record behind these values is ChEMBL document CHEMBL5678818, “Discovery of potent SOS1 inhibitors that block RAS activation via disruption of the RAS-SOS1 interaction” (Proc Natl Acad Sci U S A, 2019).
